Laboratory results taken from US8912144B2, “Method for treating stroke via administration of NEP1-40 and inosine” (Children's Medical Center Corporation, priority 2003, dated 2014).

Test system: corticospinal neurons (CSNs/CSMNs)
Experiment: Laser-capture microdissection and Illumina microarray gene expression in corticospinal neurons contralateral to stroke
Format: in vivo, rat
Procedure: In a separate group of animals (n=20), layer V pyramidal cells of the sensorimotor cortex were retrogradely labeled by injecting Alexa-Fluor-488-conjugated cholera toxin B subunit (CTB; 300 U/μl in sterile saline) into the cervical spinal cord. For this, animals were anesthetized with a combination of ketamine and Domitor (medetomidine) and a laminectomy was performed at the cervical level of the spinal cord (C2-C4). CTB was stereotaxically delivered into four sites lateral to the corticospinal tract. Injections (1.3 μl) were spaced 1 mm apart on the rostro-caudal axis, and were made 0.5 mm to the left and right of the midline. After allowing two weeks for transport of the tracer, we performed either sham surgery with no treatment (n=6) or stroke surgery combined with saline (n=3) or inosine (n=4) treatment as described above. Seven days later, animals were decapitated under transient gas anesthesia, brains were removed and rinsed in cold RPMI medium, and a tissue block containing the sensorimotor cortex was dissected and placed in OCT Tissue Tek Medium (Sakura Finetek USA Inc., CA) on dry ice within five minutes of death. Ten μm sections were cut onto precleaned Gold Seal RITE-ON glass slides (Gold Seal Prod-ucts, Portsmouth, N.H.), placed on dry ice, and rapidly stored at −80° C.
Slide-mounted sections were thawed and dehydrated in RNAse-free ethanol gradients and xylene. Retro-gradely labeled, fluorescent cortical pyramidal cells in the undamaged hemisphere were individually captured using the Arcturus VERITAS system. ≧500 cells were collected from each animal and stored in Arcturus extraction buffer at −80° C. Total RNA was extracted from cells using the Micro-to-Midi TotalRNA Purification System (Invitrogen, Carlsbad Calif.) and double-amplified using the TargetAmp 2-Round Aminoallyl-aRNA Amplification kit 1.0 (Epicentre, Madison, Wis.). Amplified RNA was checked for average fragment length using the Agilent RNA 6000 Nano LabChip kit (Agilent Technologies, Santa Clara, Calif.) and then biotinylated and hybridized (1 μg) on Illumina RatRef-12 Expression BeadChip arrays (Illumina, San Diego Calif.), querying the expression of >22,000 RefSeq-curated rat transcripts. Results were obtained from a total of 15 samples representing 6 untreated controls, 4 animals with stroke treated with saline and 5 animals with stroke treated with inosine. Slides were processed and scanned with Illumina BeadStation platform according to the manufacturer protocol.
Raw data was analyzed using Bioconductor packages (www.bioconductor.org, (Gentleman et al., 2004)). Low level quality-control analysis was performed using inter-array Pearson correlation and clustering based on variance. Two arrays (1 saline and 1 inosine-treated) were outliers and were excluded from the analysis. Data was normalized using quantile normalization, and analysis of differential expression was performed using a linear model fitting (LIMMA package, (Smyth, 2005). Differentially expressed genes were classified according to gene ontology using Bioconductor packages and online tools (DAVID, http://david.abcc.ncifcrf.gov/). Pathway analysis was carried out using Ingenuity Pathway Analysis (Ingenuity Systems, www.ingenuity.com).

## OC[C@H]1O[C@@H](n2cnc3c(O)ncnc32)[C@H](O)[C@@H]1O [inosine]
A2m ILMN_70335
  Fold-Induction Stroke, ino vs. cntrl: 4.03
  Signal Intensity Inosine: 1924
ADRP ILMN_47969
  Fold-Induction Stroke, ino vs. cntrl: 4.12
  Signal Intensity Inosine: 3202
Adn ILMN_58846
  Fold-Induction Stroke, ino vs. cntrl: 4.53
  Signal Intensity Inosine: 2287
Aif1 ILMN_47707
  Fold-Induction Stroke, ino vs. cntrl: 2.67
  Signal Intensity Inosine: 4301
Arhgdib ILMN_66176
  Fold-Induction Stroke, ino vs. cntrl: 4.08
  Signal Intensity Inosine: 3057
Arpc1b ILMN_69642
  Fold-Induction Stroke, ino vs. cntrl: 2.61
  Signal Intensity Inosine: 758
Asb2 ILMN_50991
  Fold-Induction Stroke, ino vs. cntrl: 3.27
  Signal Intensity Inosine: 615
Aurkc ILMN_69140
  Fold-Induction Stroke, ino vs. cntrl: 1.43
  Signal Intensity Inosine: 1172
Bcl2a1 ILMN_62703
  Fold-Induction Stroke, ino vs. cntrl: 3.34
  Signal Intensity Inosine: 613
Btf3 ILMN_62809
  Fold-Induction Stroke, ino vs. cntrl: 0.43
  Signal Intensity Inosine: 787
C1qb ILMN_61448
  Fold-Induction Stroke, ino vs. cntrl: 2.76
  Signal Intensity Inosine: 1832
C1qg ILMN_55502
  Fold-Induction Stroke, ino vs. cntrl: 3.66
  Signal Intensity Inosine: 2499
C2 ILMN_63608
  Fold-Induction Stroke, ino vs. cntrl: 3.12
  Signal Intensity Inosine: 4113
C4-2 ILMN_59751
  Fold-Induction Stroke, ino vs. cntrl: 2.95
  Signal Intensity Inosine: 2409
Card9 ILMN_62382
  Fold-Induction Stroke, ino vs. cntrl: 2.83
  Signal Intensity Inosine: 865
Cd68 ILMN_60003
  Fold-Induction Stroke, ino vs. cntrl: 3.88
  Signal Intensity Inosine: 2117
Cd151 ILMN_62725
  Fold-Induction Stroke, ino vs. cntrl: 1.50
  Signal Intensity Inosine: 1171
Cdk5rap2 ILMN_57761
  Fold-Induction Stroke, ino vs. cntrl: 1.68
  Signal Intensity Inosine: 1377
Chd4 ILMN_55276
  Fold-Induction Stroke, ino vs. cntrl: 1.26
  Signal Intensity Inosine: 7413
Cml1 ILMN_50957
  Fold-Induction Stroke, ino vs. cntrl: 1.08
  Signal Intensity Inosine: 275
Comt ILMN_48330
  Fold-Induction Stroke, ino vs. cntrl: 1.09
  Signal Intensity Inosine: 400
Crabp2 ILMN_48069
  Fold-Induction Stroke, ino vs. cntrl: 2.62
  Signal Intensity Inosine: 1006
Cyba ILMN_65212
  Fold-Induction Stroke, ino vs. cntrl: 4.04
  Signal Intensity Inosine: 2617
Dhrsx ILMN_56966
  Fold-Induction Stroke, ino vs. cntrl: 1.38
  Signal Intensity Inosine: 8022
Dtx2 ILMN_65350
  Fold-Induction Stroke, ino vs. cntrl: 2.24
  Signal Intensity Inosine: 1792
Esd ILMN_57701
  Fold-Induction Stroke, ino vs. cntrl: 0.44
  Signal Intensity Inosine: 1416
Ftl1 ILMN_62100
  Fold-Induction Stroke, ino vs. cntrl: 2.24
  Signal Intensity Inosine: 11718
Fxr2h ILMN_59638
  Fold-Induction Stroke, ino vs. cntrl: 1.64
  Signal Intensity Inosine: 638
Gfap ILMN_68224
  Fold-Induction Stroke, ino vs. cntrl: 2.88
  Signal Intensity Inosine: 23099
ILMN_47707, over and above inosine's effect of decreasing stroke-induced changes
  Fold-induction CSMNs: Aif1: 2.33 fold
ILMN_47889
  Fold-Induction Stroke, ino vs. cntrl, Uxs1: 0.66
ILMN_47889, inosine after stroke
  Signal Intensity, Uxs1: 2868
ILMN_48004
  Fold-Induction Stroke, ino vs. cntrl, LOC366193: 0.67
ILMN_48004, inosine after stroke
  Signal Intensity, LOC366193: 2396
ILMN_48069, over and above inosine's effect of decreasing stroke-induced changes
  Fold-induction CSMNs: Crabp2: 2.12 fold
ILMN_48088, over and above inosine's effect of decreasing stroke-induced changes
  Fold-induction CSMNs: Ifitm3: 2.74 fold
ILMN_48320
  Fold-Induction Stroke, ino vs. cntrl, Ap3s1: 0.55
ILMN_48320, inosine after stroke
  Signal Intensity, Ap3s1: 285
ILMN_48323
  Fold-Induction Stroke, ino vs. cntrl, LOC499423: 0.53
ILMN_48323, inosine after stroke
  Signal Intensity, LOC499423: 1043
ILMN_48447
  Fold-Induction Stroke, ino vs. cntrl, Wee1: 0.83
ILMN_48447, inosine after stroke
  Signal Intensity, Wee1: 367
ILMN_48507
  Fold-Induction Stroke, ino vs. cntrl, Sfrs10: 0.72
